Measured values published in patent US12539333B2, “Tetracycline complexes with sustained activity” (FRAUNHOFER-GESELLSCHAFT ZUR FÖRDERUNG DER ANGEWANDTEN …, priority 2018, dated 2026).
Converted amounts (≈) assume the structure as drawn. “Also recorded” adds a separate entry of the source.

Columns and labels:
[1] = test system: S. aureus ATCC 29213; experiment: Agar disc diffusion test; type: cell-based, Staphylococcus aureus; conditions: 30 μg of minocycline per disc; 35° C., 18 h
Method: . The procedure followed the recommendations set by EUCAST.
Test substance was the minocycline complex containing 10 mg/ml minocycline and controls were minocycline dissolved in ethanol (10 mg/ml), and pure ethanol. Solutions were diluted 3:7 with ethanol and immediately thereafter each 10 μl were pipetted to unloaded antibiotic test discs with a diameter of 6 mm (BD, Allschwil, Switzerland), thus each discs (except for ethanol control) contained 30 μg of minocycline. Overnight culture of S. aureus ATCC 29213 was suspended to McFarland 0.5, each 100 μl was spread on Mueller-Hinton-agar plate (Oxoid, Basingstoke, GB). Following the evaporation of the solvent, the test discs were placed on the plates. After incubation at 35° C. for 18 h, the diameters of the inhibition zones were measured.

[2] = Stability in aqueous environment (HPLC)
Method: For the stability investigations an Agilent 1200 Series system with a XTerra RP18 5 μm 3.9×150 column (Waters) was utilized. 10 μl sample volume were injected at a flowrate of 1.0 ml/min. For this method was also a gradient program applied. The mobile phase started with a composition of water/methanol (95/5+0.1% TFA) (A) and was shifted over 7 minutes to pure methanol (0.1% TFA) (B). After 3 minutes the mobile phase returned to solvent A within 1 minute. The retention time was 4.8 minutes. For the evaluation and extraction of the chromatograms, the Chem32 software was used.
For the stability investigation, 10 mg samples for minocycline and 20 mg for the complex were weighed into 4 ml glass vials. One of each vial was incubated in 4 ml of PBS pH 7.0 and another vial was exposed to 4 ml of an acidic solution at pH 2.3, which was adjusted with hydrochloric acid. Until the 9th day, samples were taken every day, while the removed volume was not replaced. From there on the intervals were stretched to 3 to 4 days.

[3] = test system: Porphyromonas gingivalis ATCC 33277; experiment: MIC determination of eluates and calculated effective concentration of minocycline; type: cell-based; conditions: for Effective concentration of minocycline, calculated based on the MIC of the eluates (dilutions): P. ging.
Description: (§1) In order to assess the release kinetics and biological activity of the active substances, an approach was chosen taking into consideration the conditions in the oral cavity, namely the flow rate (turnover) and composition of the sulcus in the gingival crevicular fluid (as described in Goodson, J M (2003), Periodontol 2000 31:43-54; Tew, J G et al. (1985), Infect Immun 49:487-93).

[4] = test system: Streptococcus gordonii ATCC 10558; experiment: as above; type: cell-based; conditions: for Effective concentration of minocycline, calculated based on the MIC of the eluates (dilutions): S. gord.
Description: as §1

1:2 Complex of Minocycline (Free Base) and Magnesium Stearate [Example 1]
diameter of the inhibition zone [1]: 24 mm
time after which the minocycline peak is still visible ([2]; PBS pH 7.0, 37° C.): ≥ 3 weeks
decay in aqueous environment ([2]; neutral conditions, 37° C.): much slower

CN(C)c1ccc(O)c2c1C[C@H]1C[C@H]3[C@H](N(C)C)C(O)=C(C(N)=O)C(=O)[C@@]3(O)C(O)=C1C2=O [Minocycline, (4S,4aS,5aR,12aR)-4,7-bis(dimethylamino)-1,10,11,12a-tetrahydroxy-3,12-dioxo-4a,5,5a,6-tetrahydro-4H-tetracene-2-carboxamide]
MIC ([3]; Porphyromonas gingivalis, ATCC33277, P. gingivalis ATCC 33277): 0.25 µg/mL (≈ 0.546 µM)
Effective concentration of minocycline, calculated based on the MIC of the eluates (dilutions) ([3]; eluate 1 h): >32000
Effective concentration of minocycline, calculated based on the MIC of the eluates (dilutions) ([3]; eluate 2 h): 2000
Effective concentration of minocycline, calculated based on the MIC of the eluates (dilutions) ([3]; eluate 4 h): 1000
Effective concentration of minocycline, calculated based on the MIC of the eluates (dilutions) ([3]; eluate 24 h): 500
Effective concentration of minocycline, calculated based on the MIC of the eluates (dilutions) ([3]; eluate 2 d): 62.5
Effective concentration of minocycline, calculated based on the MIC of the eluates (dilutions) ([3]; eluate 7 d): 62.5
Effective concentration of minocycline, calculated based on the MIC of the eluates (dilutions) ([3]; eluate 14 d): 4
Effective concentration of minocycline, calculated based on the MIC of the eluates (dilutions) ([3]; eluate 21 d): <1
Effective concentration of minocycline, calculated based on the MIC of the eluates (dilutions) ([3]; eluate 28 d): <1
Effective concentration of minocycline, calculated based on the MIC of the eluates (dilutions) ([3]; eluate 35 d): <1
Effective concentration of minocycline, calculated based on the MIC of the eluates (dilutions) ([3]; eluate 42 d): <1
MIC ([4]; Streptococcus gordonii, ATCC10558, S. gordonii ATCC 10558): 0.5 µg/mL (≈ 1.09 µM)
Effective concentration of minocycline, calculated based on the MIC of the eluates (dilutions) ([4]; eluate 1 h): >16000
Effective concentration of minocycline, calculated based on the MIC of the eluates (dilutions) ([4]; eluate 2 h): 8000
Effective concentration of minocycline, calculated based on the MIC of the eluates (dilutions) ([4]; eluate 4 h): 2000
Effective concentration of minocycline, calculated based on the MIC of the eluates (dilutions) ([4]; eluate 24 h): 250
Effective concentration of minocycline, calculated based on the MIC of the eluates (dilutions) ([4]; eluate 2 d): 62.5
Effective concentration of minocycline, calculated based on the MIC of the eluates (dilutions) ([4]; eluate 7 d): 4
Effective concentration of minocycline, calculated based on the MIC of the eluates (dilutions) ([4]; eluate 14 d): <2
Effective concentration of minocycline, calculated based on the MIC of the eluates (dilutions) ([4]; eluate 21 d): <2
Effective concentration of minocycline, calculated based on the MIC of the eluates (dilutions) ([4]; eluate 28 d): <2
Effective concentration of minocycline, calculated based on the MIC of the eluates (dilutions) ([4]; eluate 35 d): <2
Effective concentration of minocycline, calculated based on the MIC of the eluates (dilutions) ([4]; eluate 42 d): <2
diameter of the inhibition zone [1]: 26 mm
time within which the minocycline peak vanishes ([2]; PBS pH 7.0, 37° C.): ≤ 3 days
decay in aqueous environment ([2]; acidic conditions pH 2.3, 37° C.): decomposition process is slower; also recorded: more moderate decay
time to complete decomposition ([2]; buffer (PBS) pH 7.1, 37° C.): 3 days
